{
  "source": "patent US20130288956A1",
  "about": "“COMBINED PHARMACEUTICAL COMPOSITION AS ANTIFUNGAL AGENT” (priority 2010, published 2013)",
  "key": {"[1]": {"tested_on": "A. flavus strain IFM50915", "experiment": "A. flavus respiratory tract infection model", "format": "in vivo, mice", "conditions": "for Combined effects in mouse Aspergillus flavus infection model: combination with the test compound of the invention", "procedure": "Female DBA/2N mice (age 8 weeks, Charles River Laboratories Japan, Inc.) were subcutaneously administered 200 mg/kg of 5-fluorouracil 5 or 6 days prior to infection in order to put the mice into a compromised state.\nA. fumigatus strain IFM52108 and A. flavus strain IFM50915 were used.\nA liquid containing spores of A. flavus strain IFM50915 stored at −80° C. was thawed, and the number of spores was counted using a hemocytometer followed by diluting with sterile physiological saline containing 0.05% Tween 80 to a concentration of 0.6×10^6 cells/mL to 1.0×10^6 cells/mL to obtain an inoculation fungus liquid.\n50 μl of inoculation fungus liquid were inoculated into the nasal cavities of 9-week-old mice at 0.3×10^5 cells/mouse to 1.25×10^5 cells/mouse under Ketalar anesthesia.\n0.1 mL to 0.2 mL of each drug solution (dissolved in sterile physiological saline or 5% glucose solution, or dissolved in sterile physiological saline or 5% glucose solution containing 6.5% dimethylsulfoxide and 3.5% Tween 80) was administered to the individual and combination dose groups either into the peritoneal cavity or into the stomach using a gastric cannula corresponding to the administration route of the drug for 3 to 4 days at the rate of 1 to 2 times per day starting 0.5 hours to 1 hour after inoculation of fungus.\nThere were 5 to 9 animals in each group.\nInfection protection results were assessed on survival rate 14 days after infection."}, "A. flavus": {"tested_on": "A. flavus", "experiment": "In vitro combination effects, checkerboard method by micro dilution (FIC index)", "format": "cell-based, Aspergillus flavus", "conditions": "A. flavus (4 strains), Table 1", "procedure": "(§1) A clinically isolated strain retained by the Medical Mycology Research Center of Chiba University (Code No. IFM) and a clinically isolated strain retained by the Life Science Research Center of Gifu University (Code No. E) were used as Candida and Aspergillus strains.\n(§2) An Aspergillus strain stored frozen at −80° C., or spores obtained by static culturing at 35° C. for 1 week in Potato Dextrose agar medium (PDA, Eiken Chemical Co., Ltd.) followed by scraping from the container with a metal loop, was diluted with RPMI 1640 medium containing 0.165 M MOPS to prepare a fungus liquid having a fungus concentration of 0.75×10^4 cells/mL to 1.33×10^4 cells/mL.\n(§3) Test Compound 1 (0.0005 μg/mL to 1.56 μg/mL) in the horizontal rows (12 wells) of a 96-well flat-bottom plate, and an antifungal agent in the form of ravuconazole (0.0015 μg/mL to 6.25 μg/mL), fluconazole (0.008 μg/mL to 32 μg/mL), voriconazole (0.0002 μg/mL to 8 μg/mL), micafungin (0.0005 μg/mL to 0.25 μg/mL), caspofungin (0.0005 μg/mL to 1 μg/mL) or amphotericin B (0.008 μg/mL to 8 μg/mL) in the vertical rows (8 wells) of the flat-bottom plate were prepared by diluting so as to blend together using RPMI 1640 medium containing 0.165 M MOPS to obtain a control group, a single Test Compound 1 group, each one of antifungal agents groups and combination groups of Test Compound 1+each one of antifungal agents.\n(§4) The fungus liquids prepared in (1) were inoculated into the wells of 96-well flat-bottom plate containing 20 μL/well to 75 μL/well of the diluted test drug liquids prepared in (2) at 80 μL/well to 125 μL/well, followed by aerobically static culturing for 25 hours to 48 hours at 35° C.\n(§5) Combination effects of Test Compound 1 and the antifungal agents were measured with the checkerboard method by micro dilution.\n(§6) Interaction between both drugs was assessed by calculating the FIC index using the calculation formula indicated below.\n(§7) The FIC index was calculated for each combination of antifungal agent concentrations that inhibited fungal growth, and the minimum value of the resulting FIC index was used as a combination FIC index.\n(§8) A combination FIC index of 0.5 or less was evaluated as indicating synergistic action, that of 0.5 to 1 or less was evaluated as indicating additive action, and that of 1 to 4 or less was evaluated as indicating indifferent action.\n(§9) FIC Index=(MIC value of drug A during combination use/MIC value of drug A when used alone)+(MIC value of drug B during combination use/MIC value of drug B when used alone) (Calculation Formula)"}, "C. albicans": {"tested_on": "C. albicans", "experiment": "In vitro combination effects, checkerboard method by micro dilution (FIC index)", "format": "cell-based, Candida albicans", "conditions": "C. albicans (20 strains); combination use with Test Compound 1", "procedure": "as §1\n(§10) Fungus liquid obtained by static culturing at 35° C. for 48 hours in Sabouraud Dextrose liquid medium (SDB, Becton, Dickinson and Co.) was diluted with RPMI 1640 medium (Nissui Pharmaceutical Co., Ltd.) containing 0.165 M 3-(N-morpholino)propanesulfonic acid (MOPS) to prepare a fungus liquid having a fungus concentration of 1×10^3 cells/mL to 2×10^3 cells/mL.\nas §3, §4, §5, §6, §7, §8, §9"}, "C. glabrata": {"tested_on": "C. glabrata", "experiment": "In vitro combination effects, checkerboard method by micro dilution (FIC index)", "format": "cell-based, Candida glabrata", "conditions": "for Ratio indicating Additive effect of combination use with Test Compound 1 / Ratio indicating Antagonistic effect of combination use with Test Compound 1 / Ratio indicating Indifferent effect of combination use with Test Compound 1 / Ratio indicating Synergistic effect of combination use with Test Compound 1: C. glabrata (10 strains)", "procedure": "as §1, §10, §3, §4, §5, §6, §7, §8, §9"}, "A. fumigatus": {"tested_on": "A. fumigatus", "experiment": "In vitro combination effects, checkerboard method by micro dilution (FIC index)", "format": "cell-based, Aspergillus fumigatus", "conditions": "A. fumigatus (18 strains)", "procedure": "as §1, §2, §3, §4, §5, §6, §7, §8, §9"}, "C. tropicalis": {"tested_on": "C. tropicalis", "experiment": "In vitro combination effects, checkerboard method by micro dilution (FIC index)", "format": "cell-based, Candida tropicalis", "conditions": "C. tropicalis (10 strains); combination use with Test Compound 1", "procedure": "as §1, §10, §3, §4, §5, §6, §7, §8, §9"}},
  "data": [
    {"smiles": "C[C@@H]1[C@H](O)[C@@H](C)/C=C/C=C/C=C/C=C/C=C/C=C/C=C/[C@H](O[C@@H]2O[C@H](C)[C@@H](O)[C@H](N)[C@@H]2O)C[C@@H]2O[C@](O)(C[C@@H](O)C[C@@H](O)[C@H](O)CC[C@@H](O)C[C@@H](O)CC(=O)O[C@H]1C)C[C@H](O)[C@H]2C(=O)O", "note": "[Amphotericin B, amphotericin B]", "values": [
      {"measurement": "14-day survival rate", "setting": "[1]; AMPH 0.5 mg/kg", "value": 20, "unit": "%"},
      {"measurement": "14-day survival rate", "setting": "[1]; AMPH 1 mg/kg", "value": 0, "unit": "%"},
      {"measurement": "Combined effects in mouse Aspergillus flavus infection model", "setting": "[1]", "value": "synergistic combined effects"},
      {"measurement": "Ratio indicating Additive effect of combination use with Test Compound 1", "setting": "A. flavus", "value": 25, "unit": "%"},
      {"measurement": "Ratio indicating Antagonistic effect of combination use with Test Compound 1", "setting": "A. flavus", "value": 0, "unit": "%"},
      {"measurement": "Ratio indicating Indifferent effect of combination use with Test Compound 1", "setting": "A. flavus", "value": 75, "unit": "%"},
      {"measurement": "Ratio indicating Synergistic effect of combination use with Test Compound 1", "setting": "A. flavus", "value": 0, "unit": "%"},
      {"measurement": "Ratio indicating Additive effect of combination use with Test Compound 1", "setting": "C. albicans", "value": 85, "unit": "%"},
      {"measurement": "Ratio indicating Antagonistic effect of combination use with Test Compound 1", "setting": "C. albicans", "value": 0, "unit": "%"},
      {"measurement": "Ratio indicating Indifferent effect of combination use with Test Compound 1", "setting": "C. albicans", "value": 10, "unit": "%"},
      {"measurement": "Ratio indicating Synergistic effect of combination use with Test Compound 1", "setting": "C. albicans", "value": 5, "unit": "%"},
      {"measurement": "Ratio indicating Additive effect of combination use with Test Compound 1", "setting": "C. glabrata", "value": 70, "unit": "%"},
      {"measurement": "Ratio indicating Antagonistic effect of combination use with Test Compound 1", "setting": "C. glabrata", "value": 0, "unit": "%"},
      {"measurement": "Ratio indicating Indifferent effect of combination use with Test Compound 1", "setting": "C. glabrata", "value": 0, "unit": "%"},
      {"measurement": "Ratio indicating Synergistic effect of combination use with Test Compound 1", "setting": "C. glabrata", "value": 30, "unit": "%"},
      {"measurement": "Effect of combination use with Test Compound 1 (FIC index evaluation)", "setting": "C. glabrata; Candida glabrata strain IFM46888, resistant to fluconazole", "value": "synergistic (A combination FIC index of 0.5 or less was evaluated as indicating synergistic action)"},
      {"measurement": "Ratio indicating Additive effect of combination use with Test Compound 1", "setting": "A. fumigatus", "value": 33, "unit": "%"},
      {"measurement": "Ratio indicating Antagonistic effect of combination use with Test Compound 1", "setting": "A. fumigatus", "value": 0, "unit": "%"},
      {"measurement": "Ratio indicating Indifferent effect of combination use with Test Compound 1", "setting": "A. fumigatus", "value": 67, "unit": "%"},
      {"measurement": "Ratio indicating Synergistic effect of combination use with Test Compound 1", "setting": "A. fumigatus", "value": 0, "unit": "%"},
      {"measurement": "Ratio indicating Additive effect of combination use with Test Compound 1", "setting": "C. tropicalis", "value": 90, "unit": "%"},
      {"measurement": "Ratio indicating Antagonistic effect of combination use with Test Compound 1", "setting": "C. tropicalis", "value": 0, "unit": "%"},
      {"measurement": "Ratio indicating Indifferent effect of combination use with Test Compound 1", "setting": "C. tropicalis", "value": 10, "unit": "%"},
      {"measurement": "Ratio indicating Synergistic effect of combination use with Test Compound 1", "setting": "C. tropicalis", "value": 0, "unit": "%"}
    ]},
    {"smiles": "CC[C@H](C)C[C@H](C)CCCCCCCCC(=O)N[C@H]1C[C@@H](O)[C@@H](NCCN)NC(=O)[C@@H]2[C@@H](O)CCN2C(=O)[C@H]([C@H](O)CCN)NC(=O)[C@H]([C@H](O)[C@@H](O)c2ccc(O)cc2)NC(=O)[C@@H]2C[C@@H](O)CN2C(=O)[C@H]([C@@H](C)O)NC1=O", "note": "[Caspofungin, caspofungin]", "values": [
      {"measurement": "14-day survival rate", "setting": "[1]; CSFG 0.1 mg/kg, Table 5", "value": 37.5, "unit": "%"},
      {"measurement": "14-day survival rate", "setting": "[1]; CSFG 0.2 mg/kg, Table 5", "value": 50, "unit": "%"},
      {"measurement": "14-day survival rate", "setting": "[1]; CSFG 0.25 mg/kg, Table 4", "value": 20, "unit": "%"},
      {"measurement": "14-day survival rate", "setting": "[1]; CSFG 0.5 mg/kg, Table 4", "value": 60, "unit": "%"},
      {"measurement": "Combined effects in mouse Aspergillus flavus infection model", "setting": "[1]", "value": "synergistic combined effects"},
      {"measurement": "Ratio indicating Additive effect of combination use with Test Compound 1", "setting": "A. flavus", "value": 25, "unit": "%"},
      {"measurement": "Ratio indicating Antagonistic effect of combination use with Test Compound 1", "setting": "A. flavus", "value": 0, "unit": "%"},
      {"measurement": "Ratio indicating Indifferent effect of combination use with Test Compound 1", "setting": "A. flavus", "value": 0, "unit": "%"},
      {"measurement": "Ratio indicating Synergistic effect of combination use with Test Compound 1", "setting": "A. flavus", "value": 75, "unit": "%"},
      {"measurement": "Ratio indicating Additive effect of combination use with Test Compound 1", "setting": "C. albicans", "value": 85, "unit": "%"},
      {"measurement": "Ratio indicating Antagonistic effect of combination use with Test Compound 1", "setting": "C. albicans", "value": 0, "unit": "%"},
      {"measurement": "Ratio indicating Indifferent effect of combination use with Test Compound 1", "setting": "C. albicans", "value": 15, "unit": "%"},
      {"measurement": "Ratio indicating Synergistic effect of combination use with Test Compound 1", "setting": "C. albicans", "value": 0, "unit": "%"},
      {"measurement": "Ratio indicating Additive effect of combination use with Test Compound 1", "setting": "C. glabrata", "value": 100, "unit": "%"},
      {"measurement": "Ratio indicating Antagonistic effect of combination use with Test Compound 1", "setting": "C. glabrata", "value": 0, "unit": "%"},
      {"measurement": "Ratio indicating Indifferent effect of combination use with Test Compound 1", "setting": "C. glabrata", "value": 0, "unit": "%"},
      {"measurement": "Ratio indicating Synergistic effect of combination use with Test Compound 1", "setting": "C. glabrata", "value": 0, "unit": "%"},
      {"measurement": "Ratio indicating Additive effect of combination use with Test Compound 1", "setting": "A. fumigatus", "value": 22, "unit": "%"},
      {"measurement": "Ratio indicating Antagonistic effect of combination use with Test Compound 1", "setting": "A. fumigatus", "value": 0, "unit": "%"},
      {"measurement": "Ratio indicating Indifferent effect of combination use with Test Compound 1", "setting": "A. fumigatus", "value": 0, "unit": "%"},
      {"measurement": "Ratio indicating Synergistic effect of combination use with Test Compound 1", "setting": "A. fumigatus", "value": 78, "unit": "%"},
      {"measurement": "Ratio indicating Additive effect of combination use with Test Compound 1", "setting": "C. tropicalis", "value": 90, "unit": "%"},
      {"measurement": "Ratio indicating Antagonistic effect of combination use with Test Compound 1", "setting": "C. tropicalis", "value": 0, "unit": "%"},
      {"measurement": "Ratio indicating Indifferent effect of combination use with Test Compound 1", "setting": "C. tropicalis", "value": 10, "unit": "%"},
      {"measurement": "Ratio indicating Synergistic effect of combination use with Test Compound 1", "setting": "C. tropicalis", "value": 0, "unit": "%"}
    ]}
  ]
}
